{"source": "paper PMC11476552", "about": "“Synthesis and Preliminary Studies for In Vitro Biological Activity of Two New Water-Soluble Bis(thio)carbohydrazones and Their Copper(II) and Zinc(II) Complexes” (International Journal of Molecular Sciences, 2024)", "key": {"[1]": {"assay": "Zn(II) complex formation equilibria, spectrophotometric titration at pH 7.4", "assay_type": "physicochemical", "conditions": "for Log β([Zn2L]) / Log β([ZnL]): conditional formation constant, aqueous 25 mM HEPES buffer, pH 7.4, 25 °C", "from_the_text": "The best fit was obtained using a speciation model that consists of the sequential formation of a monometallic [ZnL] and a bimetallic [Zn2L] species. In fact, two families of spectra were observed, according to the presence in solution of two complex species and the free ligand. The first family of spectra (Zn/L = 0–1) (Figure S25) is characterized by a decrease in intensity for the bands of the free ligand at 239, 315, and 450 nm, and the appearance of bands at 251 and 394 nm. There are four isosbestic points at 245, 280, 371, and 429 nm. The second family of spectra (Zn/L = 1–2) (Figure S26) presents redshift and increase in absorbance of the band at 251 nm, the disappearance of the band at 349 nm, and redshift with decrease of absorbance of the band at 394 nm. […] The log β values for the formation of Zn(II) complexes with Na2H4L^1 · 5.5 H2O can be estimated (Table 4), and a representative distribution diagram is reported in Figure S27.\nThe spectra are characterized by four bands at ca. 238, 255, 305, and 371 nm, with those at 255 and 371 nm increasing in intensity with the addition of metal ions. The presence of these separated absorption bands led to the observation of three apparent isosbestic points at 243, 276, and 345 nm. Analogously to the Zn(II)/bis-thiocarbohydrazone system, the best fit was obtained using a speciation model that consists of the sequential formation of a monometallic [ZnL] and a bimetallic [Zn2L] species. In Figure 8, the absorbance values at 307 nm as a function of the equivalents of added Zn(II) are reported. The absorbance trend presents two almost linear regions between 0 and 1 eq. of Zn(II) and between 1 and 2 eq., respectively. This is, in fact, consistent with the sequential formation of two species with Zn:L ratios of 1:1 and 2:1, respectively. […] This behaviour is, perhaps, to be expected, taking into account the softer nature of the thiocarbohydrazonic group.\nSamples used for the study of protonation equilibria of the ligands were prepared as follows. […] For each solution, the absorption spectrum was collected in the 220–600 nm range at 298.2 K. The spectral data collection was carried out immediately after the preparation of the samples and repeated after 3 and 10 min for all the samples at different pH values to check the stability of the ligand. […] The complex formation equilibria at pH 2.5 or 7.4 of bis-TCH and bis-CH with Cu(II) and Zn(II) ions were studied by direct spectrophotometric titrations of solutions of the ligands with the metal ions, and the samples were prepared as follows. Appropriate aliquots of the stock solutions of the ligands were diluted in a quartz cuvette of 1 cm path length using HEPES buffer (pH 7.4) or by adding HCl aqueous solution (pH 2.5) to obtain ca. 17 µM ligand solutions in a total volume of 2.6 mL. The obtained ligand solutions were titrated with Cu(II) or Zn(II) titrant solutions (ca. 442 µM) up to a metal/ligand ratio of 3 for the studies at pH 7.4 and up to a Cu(II):ligand ratio of 5 (for Na2H4L^1 · 5.5 H2O) and 7 (for Na2H4L^2 · 5 H2O) for the studies at pH 2.5. […]\nThe logarithms of the apparent stability constants were calculated from the spectral dataset using HypSpec2014 software. […] All equilibria were studied at fixed pH, and therefore the determined log β values are logarithms of conditional formation constants. […] Speciation diagrams were calculated using the Hyss2009 software. […]"}, "U937 cells": {"tested_on": "U937 cells", "assay": "Antiproliferative activity, trypan blue cell count, U937", "assay_type": "cell-based", "conditions": "for GI50: Homo sapiens, U-937, U937, 72 h", "method": "We have started to investigate the antiproliferative profile of the ligands and of the complexes C1–C4 using a normal fibroblast cell line (Hs27) and a leukaemia cell line (U937), an in vitro cell model system systematically used to validate the toxicological profile of new potential anticancer agents. For the cytotoxicity assay, we treated Hs27 and U937 cells with five different concentrations of compound, ranging from 12.5 to 100 µg/mL, for 24, 48, and 72 h.\nU937 cells (ATCC, CRL-1593.2) were obtained from the American Tissue Culture Collection (Rockville, MD, USA) and were cultured in Roswell Park Memorial Institute Medium (RPMI-1640) (Euroclone, Italy); Hs27 cells (ATCC, CRL1634) were grown in DMEM. Both media were supplemented with 10% (v/v) foetal bovine serum (Euroclone, Italy), 1% L-glutamine (2 mM) (Euroclone, Italy), and 1% penicillin (100 U/mL)/streptomycin (100 µg/mL) (Euroclone, Italy), added with 10% (v/v) foetal bovine serum (Euroclone, Italy), 1% L-glutamine (2 mM) (Euroclone, Italy), and 1% penicillin (100 U/mL)/streptomycin (100 µg/mL) (Euroclone, Italy). Flasks were maintained at 37 °C and 5% CO2 in a humidified atmosphere. Cultures media were refreshed every two or three days during sub-culturing.\nThe antiproliferative activity of the ligands and the complexes C1–C4 was evaluated in vitro on U937 and Hs27 cell lines. In the exponential growth phase, cells were seeded at 5 × 10^4/mL into 12-well flat-bottom microplates. Cells were cultured in complete medium supplemented with 10% FBS, 1% L-glutamine, and 1% penicillin/streptomycin at 37 °C, 5% CO2. After seeding, different concentrations of compounds in the range from 0 to 100 µg/mL in a sterile 1X PBS solution were added to the wells and incubated for 24, 48, and 72 h. A negative control was obtained by treating cells with 1X PBS. To detect whether the treatments caused a defect in cell viability, following 24, 48, and 72 h treatments with the compounds, cells were stained with trypan blue (TB, 0.4%) (Gibco™, Thermofisher Scientific, Waltham, MA, USA). Two independent experiments were performed, and a Bürker chamber was used for cell counts. The GI50 value, i.e., the concentration causing a 50% reduction in the cell number in comparison with control cells, was calculated taking into account the guidelines of the US National Cancer Institute (NCI). Values are reported as the mean of the GI50 calculated on two independent experiments."}}, "note": "Several values for one entry are separate records, joined by “and”; a condition that tells them apart may be missing. Equal entries are not always repeated.", "data": [{"molecule": "COc1cc(S(=O)(=O)[O-])cc(/C=N/NC(=O)N/N=C/c2cc(S(=O)(=O)[O-])cc(OC)c2O)c1O.[Na+].[Na+]", "note": "[bis-CH, Bis-(sodium 3-methoxy-5-sulfonate-salicylaldehyde)-carbohydrazone]", "values": [{"measurement": "Log β([Zn2L])", "setting": "[1]", "result": "13.61(4)"}, {"measurement": "Log β([ZnL])", "setting": "[1]", "result": "7.08(3)"}, {"measurement": "GI50", "setting": "U937 cells", "result": "46.5 µg/mL and 71.8 µM"}, {"measurement": "cytotoxic effect (in words)", "setting": "U937 cells; U937, up to 100 µg/mL, 24-72 h", "result": "mild antiproliferative activity"}]}, {"molecule": "COc1cc(S(=O)(=O)[O-])cc(/C=N/NC(=S)N/N=C/c2cc(S(=O)(=O)[O-])cc(OC)c2O)c1O.[Na+].[Na+]", "note": "[bis-TCH, Bis-(sodium 3-methoxy-5-sulfonate-salicylaldehyde)-thiocarbohydrazone]", "values": [{"measurement": "Log β([Zn2L])", "setting": "[1]", "result": "15.29(10)"}, {"measurement": "Log β([ZnL])", "setting": "[1]", "result": "8.40(6)"}, {"measurement": "higher stability of Zn(II) complexes versus Na2H4L^2 · 5 H2O (difference in log β, both species)", "setting": "[1]; pH 7.4, [ZnL] and [Zn2L]", "result": "ca. 1.5 log units"}, {"measurement": "GI50", "setting": "U937 cells", "result": "98 µg/mL and 144 µM"}, {"measurement": "reduction in cell viability", "setting": "U937 cells; U937, highest dose, 72 h", "result": 50, "unit": "%"}]}]}
